{"source": "patent US20070265211A1", "about": "“Novel composition and method effective in inhibiting the atherogenic process” (priority 2006, published 2007)", "key": {"[1]": {"system": "vascular smooth muscle cells (VSMC) from guinea-pig aorta", "details": "0.5-2.0 mM ascorbate; direct and matrix-mediated effects; cited from earlier work"}, "[2]": {"system": "Human aortic smooth muscle cells", "assay": "SMC proliferation by [3H]-thymidine incorporation into cellular DNA", "format": "cell-based", "details": "physiologically relevant concentration", "protocol": "Human aortic smooth muscle cells (SMC, obtained from Clonetics) were cultured in DMEM (Dulbecco's modified Eagle's medium), supplemented with 10% fetal bovine serum, penicillin (100 μg/ml) and streptomycin (100 μg/ml) at 37° C. in a humidified atmosphere containing 5% CO2, and were split 1:3 to 1:5 upon reaching the confluence. SMC at passages 5-8 were used in experiments. […] SMC proliferation was assayed by [3H]-thymidine incorporation into cellular genetic material. Cells were plated in 24-well plates at a density of 10,000 cells per cm^2 in 0.5 ml of DMEM supplemented with 2% FBS. The attached cells were supplied every 24 hours with fresh growth medium plus additions, as specified in the protocols. Test agents included the nutrient mixture and individual components. […] Cell proliferation was measured 3 days later by the addition of 1 pCi/ml [3H]-thymidine to the cell culture for the last 4 hours of the experiment. […] Samples were mixed with scintillation fluid and counted using a liquid scintillation counter (model 6500 LS, Beckman Instruments, USA). Cellular DNA-incorporated radioactivity was expressed as d/min per well. In some wells cells were stained with Hematoxylin/Eosin and cell nucleus were counted under microscope in standard way chosen views covering total 65% of the well area. Cell counting data expressed as cell number per well."}}, "data": [{"smiles": "O=C1O[C@H]([C@@H](O)CO)C(O)=C1O", "note": "[ascorbate, ascorbic acid]", "values": [{"measurement": "Proliferation of VSMC from guinea-pig aorta", "setting": "[1]", "value": "dose-dependent decreased proliferation"}]}, {"smiles": "O=C(O[C@@H]1Cc2c(O)cc(O)cc2O[C@@H]1c1cc(O)c(O)c(O)c1)c1cc(O)c(O)c(O)c1", "note": "[epigallocatechin gallate]", "values": [{"measurement": "Cultured human aortic SMC growth rate (rate of cellular DNA synthesis)", "setting": "[2]", "value": "significantly reduced"}]}]}
